Laboratory results: ChEMBL document CHEMBL1127276, “Chemical and plasma hydrolyses of a diphenyl -aminomethyl phosphonate prodrug inhibitor of neutral endopeptidase 24.11” (Bioorg Med Chem Lett, 1994)

Columns and labels:
[1] = Ionization constant in acidic (COOH)medium; assay type: physicochemical; conditions: read-out: pKa2
[2] = Ionization constant in basic (NH2+) medium; assay type: physicochemical; conditions: read-out: pKa4
[3] = Ionization constant in slightly acidic(POH) medium; assay type: physicochemical; conditions: read-out: pKa3
[4] = Half life at a pH 8.78 in KHCO3 medium; assay type: ADME
[5] = Half life at a pH 8.5 in Na2HPO4/NaH2PO4 medium; assay type: ADME
[6] = Half life at a pH 12.01 in […] medium; assay type: ADME
[7] = Half life at a pH 8.44 in NaHCO3 medium; assay type: ADME
[8] = In vitro half life at 1.5 -5.6ug/mL, 37 degree C in dog plasma; assay type: ADME, Canis lupus familiaris
[9] = In vitro half life at 1.5 -5.6ug/mL, 37 degree C in human plasma; assay type: ADME, cell-free
[10] = In vitro half life at 1.5 -5.6ug/mL, 37 degree C in rat plasma; assay type: ADME
[11] = Half life at a pH 13.65 in KOH medium; assay type: ADME
[12] = In vitro half life at 1.5 -5.6ug/mL, 37 degree C in monkey plasma; assay type: ADME, cell-free; conditions: cercopithecidae

| pKa [3] | SMILES | pKa [1] | pKa [2] | half-life [4] | half-life [5] | half-life [6] | half-life [7] | half-life [8] | half-life [9] | half-life [10] | half-life [11] | half-life [12] |
| --- | --- | --- | --- | --- | --- | --- | --- | --- | --- | --- | --- | --- |
| 7.8 | O=C(O)CCNC(=O)[C@H](Cc1ccc(-c2ccccc2)cc1)NCP(=O)(O)O | 5.5 | 10 |  |  |  |  |  |  |  |  |  |
|  | O=C(O)CCNC(=O)[C@H](Cc1ccc(-c2ccccc2)cc1)NCP(=O)(Oc1ccccc1)Oc1ccccc1 |  |  | 8.19 h | > 96 h | < 0.167 h | 8.68 h | 13 h | 1.4 h | 2.5 h | < 5 min | 4.7 h |
|  | O=C(O)CCNC(=O)[C@H](Cc1ccc(-c2ccccc2)cc1)NCP(=O)(O)Oc1ccccc1 | 5.8 | 10 | 0.51 h | > 6 h | > 0.1 h | 0.55 h | 38 h | 4.2 h | 9.4 h | > 6 min | > 7.8 h |
